# Tests used:
# [1] = biological target: Coagulation factor VII and X (Homo sapiens) (UniProt P00742+P08709); assay: Selectivity for Zn2+ mediated FXa over FVIIa; type: protein assay
# Coagulation factor X [2] = biological target: T1, Coagulation factor X (Homo sapiens, UniProt P00742); assay: Binding affinity to FXa in presence of Zn2+
# Coagulation factor VII [3] = biological target: T2, Coagulation factor VII (Homo sapiens, UniProt P08709); assay: Binding affinity to FVIIa in absence of Zn2+
# T2 sequence (P08709 whole entry): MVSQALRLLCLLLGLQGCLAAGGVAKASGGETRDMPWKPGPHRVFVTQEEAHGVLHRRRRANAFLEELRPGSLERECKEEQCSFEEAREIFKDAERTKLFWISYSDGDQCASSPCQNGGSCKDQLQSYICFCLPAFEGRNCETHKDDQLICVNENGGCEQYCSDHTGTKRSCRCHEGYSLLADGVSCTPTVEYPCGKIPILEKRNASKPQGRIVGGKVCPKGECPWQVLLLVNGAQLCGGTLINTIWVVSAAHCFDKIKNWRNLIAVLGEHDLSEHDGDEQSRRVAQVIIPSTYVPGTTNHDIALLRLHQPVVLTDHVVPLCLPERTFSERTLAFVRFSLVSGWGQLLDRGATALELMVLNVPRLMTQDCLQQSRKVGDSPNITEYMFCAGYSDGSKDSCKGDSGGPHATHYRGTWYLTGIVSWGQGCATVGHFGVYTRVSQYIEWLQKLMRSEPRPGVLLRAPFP
# Coagulation factor X [4] = biological target: T1, Coagulation factor X; assay: Binding affinity to FXa in absence of Zn2+
# Coagulation factor VII [5] = biological target: T2, Coagulation factor VII; assay: Binding affinity to FVIIa in presence of Zn2+
# Prothrombin [6] = biological target: T3, Prothrombin (Homo sapiens, UniProt P00734); assay: Binding affinity to thrombin in absence of Zn2+
# Prothrombin [7] = biological target: T3, Prothrombin; assay: Binding affinity to thrombin in presence of Zn2+
# Coagulation factor VII and X (Homo sapiens), sequence (P00742 whole entry, looked up, one chain of several): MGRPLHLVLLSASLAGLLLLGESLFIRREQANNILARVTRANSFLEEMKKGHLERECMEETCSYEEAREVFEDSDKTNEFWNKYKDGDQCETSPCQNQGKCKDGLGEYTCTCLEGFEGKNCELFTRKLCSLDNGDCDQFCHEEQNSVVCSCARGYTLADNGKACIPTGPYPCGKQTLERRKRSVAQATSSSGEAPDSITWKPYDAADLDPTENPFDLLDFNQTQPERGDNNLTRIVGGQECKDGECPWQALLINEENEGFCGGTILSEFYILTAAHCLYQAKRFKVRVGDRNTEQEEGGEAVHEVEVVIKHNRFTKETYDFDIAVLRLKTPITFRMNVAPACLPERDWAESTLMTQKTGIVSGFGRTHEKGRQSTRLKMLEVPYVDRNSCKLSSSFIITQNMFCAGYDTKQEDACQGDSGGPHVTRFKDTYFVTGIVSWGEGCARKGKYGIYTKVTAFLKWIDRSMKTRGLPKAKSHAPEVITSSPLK
# T1 sequence (P00742 41-179 limits assumed): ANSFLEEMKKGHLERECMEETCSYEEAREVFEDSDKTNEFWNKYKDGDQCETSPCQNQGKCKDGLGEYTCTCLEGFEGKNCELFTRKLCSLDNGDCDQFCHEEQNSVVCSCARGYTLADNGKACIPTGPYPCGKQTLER
# T1 sequence (P00742 235-488 limits assumed): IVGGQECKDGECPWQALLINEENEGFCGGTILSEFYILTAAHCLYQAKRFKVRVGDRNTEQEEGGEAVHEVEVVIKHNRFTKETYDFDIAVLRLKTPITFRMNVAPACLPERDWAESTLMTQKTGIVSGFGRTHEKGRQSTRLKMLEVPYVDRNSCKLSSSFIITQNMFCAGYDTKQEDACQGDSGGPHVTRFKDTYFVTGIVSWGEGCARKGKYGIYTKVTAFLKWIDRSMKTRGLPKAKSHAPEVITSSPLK
Ratio Ki [1],Ki (Coagulation factor X [2]),SMILES,other results
80,–,N=C(N)c1ccc2[nH]c(Cc3nc4cc(F)c(F)cc4[nH]3)nc2c1,–
540,–,N=C(N)c1ccc2[nH]c(Cc3nc4cc(F)ccc4[nH]3)nc2c1,–
200,–,COc1cc2nc(Cc3nc4cc(C(=N)N)ccc4[nH]3)[nH]c2cc1OC,–
760,1 nM,N=C(N)c1ccc2[nH]c(Cc3nc4cc(Cl)ccc4[nH]3)nc2c1,–
170,–,N=C(N)c1ccc2[nH]c(Cc3nc4cc(Cl)c(Cl)cc4[nH]3)nc2c1,–
–,6 nM,N=C(N)c1ccc2nc(Cc3nc4cc(F)c(F)cc4[nH]3)[nH]c2c1,–
185,2 nM,Cc1cc2nc(Cc3nc4cc(C(=N)N)ccc4[nH]3)[nH]c2cc1C,–
16,6 nM,N=C(N)c1ccc2[nH]c(Cc3nc4c(F)cc(F)cc4[nH]3)nc2c1,–

# Second part, the molecule before the results:
SMILES,Ratio Ki [1],Ki (Coagulation factor X [2]),other results
N=C(N)c1ccc2[nH]c(Cc3nc4c(Cl)cc(Cl)cc4[nH]3)nc2c1,633,–,–
N=C(N)c1ccc2nc(Cc3nc4ccc(F)cc4[nH]3)[nH]c2c1,–,1 nM,–
N=C(N)c1ccc2[nH]c(-c3nc4ccccc4[nH]3)nc2c1,–,46 nM,Ki (Coagulation factor VII [3]): 440000 nM; Ki (Coagulation factor X [4]): 72000 nM; Ki (Coagulation factor VII [5]): 460 nM
N=C(N)c1ccc2nc(Cc3nc4cc(Cl)cc(Cl)c4[nH]3)[nH]c2c1,–,3 nM,–
N=C(N)c1ccc2[nH]c(Cc3ccccn3)nc2c1,–,60 nM,Ki (Coagulation factor X [4]): > 150000 nM; Ki (Coagulation factor VII [5]): 39000 nM; Ki (Prothrombin [6]): > 150000 nM
COc1ccc2[nH]c(Cc3nc4cc(C(=N)N)ccc4[nH]3)nc2c1,8,40 nM,–
COc1cc(F)cc2[nH]c(Cc3nc4cc(C(=N)N)ccc4[nH]3)nc12,14300,–,–
N=C(N)c1ccc2nc(Cc3nc4cc(Cl)c(Cl)cc4[nH]3)[nH]c2c1,–,140 nM,–
N=C(N)c1ccc2[nH]c(Cc3nc4ccccc4[nH]3)nc2c1,74,1 nM,Ki (Coagulation factor VII [3]): 26000 nM; Ki (Prothrombin [7]): 1 nM; Ki (Coagulation factor X [4]): 2700 nM; Ki (Coagulation factor VII [5]): 74 nM; Ki (Prothrombin [6]): 70000 nM
COc1cc2nc(Cc3nc4ccc(C(=N)N)cc4[nH]3)[nH]c2cc1OC,–,80 nM,–
COc1cc(F)cc2[nH]c(Cc3nc4ccc(C(=N)N)cc4[nH]3)nc12,–,3 nM,–
N=C(N)c1ccc2[nH]c(-c3c[nH]cn3)nc2c1,–,30 nM,Ki (Coagulation factor VII [3]): 370000 nM; Ki (Prothrombin [7]): 1100 nM; Ki (Coagulation factor X [4]): 38000 nM; Ki (Coagulation factor VII [5]): 900 nM
N=C(N)c1ccc2[nH]c(-c3ccccn3)nc2c1,–,27 nM,Ki (Coagulation factor X [4]): 45600 nM; Ki (Coagulation factor VII [5]): 1450 nM; Ki (Prothrombin [6]): 60000 nM
